From patent publication US11998544B2, “Methods of using splicing modulators” (EISAI R&D MANAGEMENT CO., LTD., priority 2018, dated 2024)

How the values were obtained:
SF3b1 mutant cell lines = conditions: previously shown, U.S. Pat. No. 9,481,669 B2 and PCT/US2016/062525, cited from earlier work
CT26 syngeneic tumors = test: Efficacy study, mouse colon cancer syngeneic model (CT26); assay type: in vivo; conditions: Balb/c mice with CT26 tumors; Compound 1 at any dose level or schedule; FIG. 1A
Protocol: Efficacy Study Protocol: Mouse Colon Cancer Syngeneic Model
CT26 colon cancer cells (0.25×10^6; ATCC Cat # CRL-2638) were implanted subcutaneously into the right flank of eight-week old female Balb/c mice (Envigo) in 100 μL of PBS lacking matrigel. CT26 tumors were allowed to grow to an average of ˜100 mm^3 before animals were enrolled onto the efficacy study. Each treatment group contained 12 mice. Mice were treated with Compound 1, an anti-CTLA4 antibody (Bio X Cell Catalog Number: BE0164 (αCTLA4 9D9)), or a combination at doses and routes of administration as shown in FIG. 1. Compound 1 was formulated in a composition containing 5% ethanol and 95% methylcellulose solution (0.5% methylcellulose. The anti-CTLA4 antibody was formulated in phosphate buffer solution at pH 7.0. Tumors were measured 3 times per week for up to 19 days. Tumor volumes were calculated using the ellipsoid formula: Tumor Volume=(length×width^2)/2

[1] = in vivo; cited from earlier work

In the case of `C/C(=C\C=C\[C@@H](C)c1ccccn1)[C@H]1OC(=O)C[C@H](O)CC[C@@](C)(O)[C@@H](OC(=O)N2CCN(C)CC2)/C=C/[C@@H]1C` [Compound 1, (2S,3S,6S,7R,10R,E)-7,10-dihydroxy-3,7-dimethyl-12-oxo-2-((R,2E,4E)-6-(pyridin-2-yl)hepta-2,4-dien-2-yl)oxacyclododec-4-en-6-yl 4-methylpiperazine-1-carboxylate], the cellular lethality (SF3b1 mutant cell lines; SF3b1 mutant cell lines) is listed as “cellular lethality in SF3b1 mutant cell lines”, the splicing modulator activity (SF3b1 mutant cell lines) is listed as “demonstrate splicing modulator activity” and the “antitumor activity (growth curves compared to vehicle treated controls)” value (CT26 syngeneic tumors) is listed as “did not result in noticeable antitumor activity”.

In the case of “tremelimumab: fully human anti-CTLA4 antibody, an IgG2”, the plasma half-life [1] is given as “approximately 22 days”.

For “Ipilimumab: fully human anti-CTLA4 antibody, an IgG1”, the plasma half-life [1] is given as 12 to 14 days.
